The values below come from ChEMBL document CHEMBL1145498, “A systematic interaction map of validated kinase inhibitors with Ser/Thr kinases” (Proc Natl Acad Sci U S A, 2007).

The target of assay [1] is T1, Serine/threonine-protein kinase 4 (Homo sapiens) (UniProt Q13043).
T1 sequence (whole entry): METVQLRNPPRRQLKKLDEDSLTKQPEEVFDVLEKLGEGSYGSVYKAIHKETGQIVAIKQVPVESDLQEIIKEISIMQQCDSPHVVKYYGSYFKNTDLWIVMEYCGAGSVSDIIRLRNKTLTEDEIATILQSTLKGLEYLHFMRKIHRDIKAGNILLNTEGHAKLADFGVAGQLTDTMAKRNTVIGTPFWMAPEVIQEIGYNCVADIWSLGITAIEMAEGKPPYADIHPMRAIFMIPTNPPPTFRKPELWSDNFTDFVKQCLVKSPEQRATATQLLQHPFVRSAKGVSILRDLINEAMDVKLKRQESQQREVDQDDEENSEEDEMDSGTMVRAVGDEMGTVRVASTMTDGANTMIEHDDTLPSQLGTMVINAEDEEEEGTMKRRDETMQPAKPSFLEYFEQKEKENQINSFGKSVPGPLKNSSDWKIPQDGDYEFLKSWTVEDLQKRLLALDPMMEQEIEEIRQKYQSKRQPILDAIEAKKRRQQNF

Assay [2] has as its target Dual specificity mitogen-activated protein kinase kinase 2 (Homo sapiens, UniProt P36507).
In assay [3] the target is Serine/threonine-protein kinase 10 (Homo sapiens) (UniProt O94804).
The target in assay [4] is Calcium/calmodulin-dependent protein kinase type II subunit gamma (Homo sapiens) (UniProt Q13555).
In assay [5] the target is Serine/threonine-protein kinase pim-1 (Homo sapiens) (UniProt P11309).
For assay [6], the target named is Serine/threonine-protein kinase Chk2 (Homo sapiens, UniProt O96017).
The target of assay [7] is T2, Calcium/calmodulin-dependent protein kinase type IV (Homo sapiens) (UniProt Q16566).
T2 sequence (whole entry): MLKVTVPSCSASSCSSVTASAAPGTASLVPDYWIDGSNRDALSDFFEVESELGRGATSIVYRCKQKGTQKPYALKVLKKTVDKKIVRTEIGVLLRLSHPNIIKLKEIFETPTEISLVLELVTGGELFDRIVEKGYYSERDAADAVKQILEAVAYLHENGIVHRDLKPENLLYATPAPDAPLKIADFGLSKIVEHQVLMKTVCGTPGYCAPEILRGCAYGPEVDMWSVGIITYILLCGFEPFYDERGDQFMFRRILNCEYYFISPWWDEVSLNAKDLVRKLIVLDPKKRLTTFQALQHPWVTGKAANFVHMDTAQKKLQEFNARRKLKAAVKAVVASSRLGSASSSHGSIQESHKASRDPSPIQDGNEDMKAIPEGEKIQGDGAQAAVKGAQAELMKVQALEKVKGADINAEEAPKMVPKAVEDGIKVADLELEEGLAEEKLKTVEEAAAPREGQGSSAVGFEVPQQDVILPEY

Assay [8] addresses STE20-like serine/threonine-protein kinase (Homo sapiens) (UniProt Q9H2G2).
The target of assay [9] is Serine/threonine-protein kinase RIO2 (Homo sapiens) (UniProt Q9BVS4).
Assay [10] concerns the target Serine/threonine-protein kinase PAK 6 (Homo sapiens) (UniProt Q9NQU5).
The target in assay [11] is T3, Serine/threonine-protein kinase VRK3 (Homo sapiens) (UniProt Q8IV63).
T3 sequence (whole entry): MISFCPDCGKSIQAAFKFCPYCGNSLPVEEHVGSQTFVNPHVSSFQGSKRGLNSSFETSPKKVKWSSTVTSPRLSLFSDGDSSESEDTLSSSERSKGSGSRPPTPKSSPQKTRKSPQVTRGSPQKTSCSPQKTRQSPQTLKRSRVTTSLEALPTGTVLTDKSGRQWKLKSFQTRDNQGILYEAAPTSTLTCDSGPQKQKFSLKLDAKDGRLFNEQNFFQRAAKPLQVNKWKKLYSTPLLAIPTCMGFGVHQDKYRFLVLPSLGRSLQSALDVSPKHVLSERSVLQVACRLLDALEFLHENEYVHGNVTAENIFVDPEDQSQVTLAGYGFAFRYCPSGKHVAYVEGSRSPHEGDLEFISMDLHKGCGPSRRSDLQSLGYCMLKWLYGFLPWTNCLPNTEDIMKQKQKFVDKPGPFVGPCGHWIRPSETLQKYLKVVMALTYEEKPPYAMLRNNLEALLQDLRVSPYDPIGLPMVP

Assay [12] has as its target TRAF2 and NCK-interacting protein kinase (Homo sapiens) (UniProt Q9UKE5).
Assay [13] has as its target Serine/threonine-protein kinase pim-2 (Homo sapiens, UniProt Q9P1W9).
For assay [14], the target named is Mitogen-activated protein kinase 3 (Homo sapiens, UniProt P27361).
The target in assay [15] is Mitogen-activated protein kinase 11 (Homo sapiens, UniProt Q15759).
Assay [16] addresses Serine/threonine-protein kinase 38 (Homo sapiens) (UniProt Q15208).
Assay [17] addresses Calcium/calmodulin-dependent protein kinase type 1D (Homo sapiens) (UniProt Q8IU85).
Assay [18] concerns the target Serine/threonine-protein kinase 26 (Homo sapiens) (UniProt Q9P289).
The target in assay [19] is T4, Serine/threonine-protein kinase Nek2 (Homo sapiens) (UniProt P51955).
T4 sequence (whole entry): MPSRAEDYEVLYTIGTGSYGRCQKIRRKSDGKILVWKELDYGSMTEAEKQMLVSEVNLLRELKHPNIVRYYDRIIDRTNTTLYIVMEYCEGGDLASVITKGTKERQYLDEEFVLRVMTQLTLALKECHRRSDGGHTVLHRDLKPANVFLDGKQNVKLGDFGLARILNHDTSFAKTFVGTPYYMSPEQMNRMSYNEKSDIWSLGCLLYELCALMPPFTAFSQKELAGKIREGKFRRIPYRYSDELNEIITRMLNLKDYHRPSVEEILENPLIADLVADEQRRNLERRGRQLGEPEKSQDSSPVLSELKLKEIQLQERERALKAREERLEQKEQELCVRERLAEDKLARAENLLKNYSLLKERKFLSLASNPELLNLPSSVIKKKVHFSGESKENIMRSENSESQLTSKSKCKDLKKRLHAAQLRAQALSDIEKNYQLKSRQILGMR

Assay [20] addresses Cyclin-dependent kinase 2 (Homo sapiens, UniProt P24941).

Chain of Mitogen-activated protein kinase 11 (Q15759 whole entry): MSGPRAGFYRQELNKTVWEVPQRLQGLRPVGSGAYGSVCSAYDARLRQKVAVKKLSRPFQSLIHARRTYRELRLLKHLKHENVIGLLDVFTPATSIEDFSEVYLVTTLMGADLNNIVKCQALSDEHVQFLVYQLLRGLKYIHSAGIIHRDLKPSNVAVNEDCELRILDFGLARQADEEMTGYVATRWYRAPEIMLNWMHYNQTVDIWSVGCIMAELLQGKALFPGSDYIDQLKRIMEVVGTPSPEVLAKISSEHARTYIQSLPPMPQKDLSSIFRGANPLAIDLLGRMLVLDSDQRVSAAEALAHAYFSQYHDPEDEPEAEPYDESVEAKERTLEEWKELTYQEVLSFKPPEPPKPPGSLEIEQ
Chain of Serine/threonine-protein kinase 26 (Homo sapiens) (Q9P289 2-416 limits assumed): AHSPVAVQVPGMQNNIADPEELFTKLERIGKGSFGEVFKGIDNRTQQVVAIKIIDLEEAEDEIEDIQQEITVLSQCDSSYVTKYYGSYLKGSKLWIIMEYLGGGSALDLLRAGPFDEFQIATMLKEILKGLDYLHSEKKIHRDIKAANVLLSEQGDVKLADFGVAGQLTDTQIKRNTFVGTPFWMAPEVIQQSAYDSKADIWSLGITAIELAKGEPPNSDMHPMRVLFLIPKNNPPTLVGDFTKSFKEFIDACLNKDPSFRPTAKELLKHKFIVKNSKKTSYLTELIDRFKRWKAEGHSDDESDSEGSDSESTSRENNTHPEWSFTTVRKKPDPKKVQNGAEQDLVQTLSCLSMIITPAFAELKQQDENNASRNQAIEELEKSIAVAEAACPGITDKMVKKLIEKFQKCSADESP
Chain of Calcium/calmodulin-dependent protein kinase type 1D (Homo sapiens) (Q8IU85 whole entry, looked up): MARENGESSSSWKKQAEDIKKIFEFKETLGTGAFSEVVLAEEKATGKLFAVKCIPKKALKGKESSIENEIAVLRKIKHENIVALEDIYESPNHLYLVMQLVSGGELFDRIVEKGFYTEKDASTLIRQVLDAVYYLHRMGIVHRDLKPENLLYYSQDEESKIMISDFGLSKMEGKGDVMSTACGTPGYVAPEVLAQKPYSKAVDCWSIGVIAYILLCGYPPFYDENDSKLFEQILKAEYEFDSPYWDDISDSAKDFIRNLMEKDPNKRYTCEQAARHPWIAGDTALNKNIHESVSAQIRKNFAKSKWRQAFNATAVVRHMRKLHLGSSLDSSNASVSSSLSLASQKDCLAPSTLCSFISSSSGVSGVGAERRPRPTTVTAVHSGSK
Chain of Serine/threonine-protein kinase pim-1 (Homo sapiens) (P11309 whole entry, looked up): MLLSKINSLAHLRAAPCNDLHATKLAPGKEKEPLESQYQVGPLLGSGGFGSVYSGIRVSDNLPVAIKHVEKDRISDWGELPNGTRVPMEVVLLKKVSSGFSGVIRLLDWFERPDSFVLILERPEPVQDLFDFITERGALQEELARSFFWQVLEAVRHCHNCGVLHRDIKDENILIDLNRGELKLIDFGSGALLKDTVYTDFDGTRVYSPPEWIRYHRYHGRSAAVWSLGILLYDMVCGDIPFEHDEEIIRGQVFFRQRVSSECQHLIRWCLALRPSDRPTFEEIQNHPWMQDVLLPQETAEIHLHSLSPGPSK
Chain of Serine/threonine-protein kinase Chk2 (O96017 whole entry): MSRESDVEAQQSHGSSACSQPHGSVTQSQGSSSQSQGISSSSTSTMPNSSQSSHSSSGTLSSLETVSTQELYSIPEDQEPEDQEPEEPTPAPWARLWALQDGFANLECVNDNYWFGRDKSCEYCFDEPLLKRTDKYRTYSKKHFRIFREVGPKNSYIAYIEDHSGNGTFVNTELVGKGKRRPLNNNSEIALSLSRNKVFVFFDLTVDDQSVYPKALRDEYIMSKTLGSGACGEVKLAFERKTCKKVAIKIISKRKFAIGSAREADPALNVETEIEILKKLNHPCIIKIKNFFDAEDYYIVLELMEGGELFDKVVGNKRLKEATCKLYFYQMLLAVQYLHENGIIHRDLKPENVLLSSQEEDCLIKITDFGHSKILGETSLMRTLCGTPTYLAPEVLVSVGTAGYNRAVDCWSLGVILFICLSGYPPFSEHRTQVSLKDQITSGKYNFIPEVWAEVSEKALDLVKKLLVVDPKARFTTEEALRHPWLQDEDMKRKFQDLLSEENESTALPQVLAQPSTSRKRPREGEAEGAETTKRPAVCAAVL
Chain of Mitogen-activated protein kinase 3 (P27361 whole entry): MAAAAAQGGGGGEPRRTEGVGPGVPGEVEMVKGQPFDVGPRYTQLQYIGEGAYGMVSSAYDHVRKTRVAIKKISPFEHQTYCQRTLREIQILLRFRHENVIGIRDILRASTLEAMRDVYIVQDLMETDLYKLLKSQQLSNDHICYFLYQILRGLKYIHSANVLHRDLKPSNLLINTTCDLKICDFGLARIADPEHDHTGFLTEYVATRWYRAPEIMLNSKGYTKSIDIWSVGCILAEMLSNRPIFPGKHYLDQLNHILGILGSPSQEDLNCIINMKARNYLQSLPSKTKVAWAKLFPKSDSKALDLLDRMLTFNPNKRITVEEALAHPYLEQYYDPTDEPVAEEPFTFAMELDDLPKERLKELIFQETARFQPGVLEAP
Chain of Serine/threonine-protein kinase PAK 6 (Homo sapiens) (Q9NQU5 whole entry, looked up): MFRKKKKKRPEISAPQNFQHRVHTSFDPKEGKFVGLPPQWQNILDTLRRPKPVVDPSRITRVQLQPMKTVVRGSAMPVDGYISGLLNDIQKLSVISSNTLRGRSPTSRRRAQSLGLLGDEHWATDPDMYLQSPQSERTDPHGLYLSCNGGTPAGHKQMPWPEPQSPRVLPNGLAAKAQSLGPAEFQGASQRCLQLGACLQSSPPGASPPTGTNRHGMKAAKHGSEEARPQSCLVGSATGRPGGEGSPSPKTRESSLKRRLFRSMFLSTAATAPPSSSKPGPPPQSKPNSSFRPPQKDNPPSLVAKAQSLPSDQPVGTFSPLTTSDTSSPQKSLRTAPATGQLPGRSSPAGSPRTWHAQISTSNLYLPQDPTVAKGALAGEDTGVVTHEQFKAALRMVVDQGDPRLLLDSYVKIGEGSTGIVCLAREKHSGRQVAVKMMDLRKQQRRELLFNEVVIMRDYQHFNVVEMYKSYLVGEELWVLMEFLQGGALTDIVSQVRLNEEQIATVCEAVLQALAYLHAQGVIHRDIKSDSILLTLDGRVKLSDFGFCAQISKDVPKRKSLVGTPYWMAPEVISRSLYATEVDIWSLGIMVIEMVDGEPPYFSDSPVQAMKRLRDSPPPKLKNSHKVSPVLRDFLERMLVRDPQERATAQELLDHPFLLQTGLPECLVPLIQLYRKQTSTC
Chain of Serine/threonine-protein kinase pim-2 (Q9P1W9 whole entry, looked up): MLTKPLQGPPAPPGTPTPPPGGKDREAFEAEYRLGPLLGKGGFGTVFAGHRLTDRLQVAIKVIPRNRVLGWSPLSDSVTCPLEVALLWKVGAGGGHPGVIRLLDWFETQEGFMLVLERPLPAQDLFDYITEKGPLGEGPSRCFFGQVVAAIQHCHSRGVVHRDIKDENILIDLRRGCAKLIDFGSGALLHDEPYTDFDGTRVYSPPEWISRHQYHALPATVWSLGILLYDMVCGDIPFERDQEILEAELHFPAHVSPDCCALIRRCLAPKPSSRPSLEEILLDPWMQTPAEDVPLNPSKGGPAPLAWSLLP
Chain of Dual specificity mitogen-activated protein kinase kinase 2 (P36507 whole entry): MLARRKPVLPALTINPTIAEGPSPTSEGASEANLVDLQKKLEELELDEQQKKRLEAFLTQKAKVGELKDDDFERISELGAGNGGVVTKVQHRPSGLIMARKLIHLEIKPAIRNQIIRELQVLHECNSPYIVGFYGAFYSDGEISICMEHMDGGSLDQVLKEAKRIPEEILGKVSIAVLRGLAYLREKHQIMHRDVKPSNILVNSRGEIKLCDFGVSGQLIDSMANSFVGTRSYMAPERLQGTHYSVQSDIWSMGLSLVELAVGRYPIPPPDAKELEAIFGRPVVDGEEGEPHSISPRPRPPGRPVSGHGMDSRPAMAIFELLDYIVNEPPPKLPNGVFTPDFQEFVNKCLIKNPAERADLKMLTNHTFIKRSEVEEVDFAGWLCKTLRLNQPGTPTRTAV
Chain of Serine/threonine-protein kinase RIO2 (Homo sapiens) (Q9BVS4 whole entry, looked up): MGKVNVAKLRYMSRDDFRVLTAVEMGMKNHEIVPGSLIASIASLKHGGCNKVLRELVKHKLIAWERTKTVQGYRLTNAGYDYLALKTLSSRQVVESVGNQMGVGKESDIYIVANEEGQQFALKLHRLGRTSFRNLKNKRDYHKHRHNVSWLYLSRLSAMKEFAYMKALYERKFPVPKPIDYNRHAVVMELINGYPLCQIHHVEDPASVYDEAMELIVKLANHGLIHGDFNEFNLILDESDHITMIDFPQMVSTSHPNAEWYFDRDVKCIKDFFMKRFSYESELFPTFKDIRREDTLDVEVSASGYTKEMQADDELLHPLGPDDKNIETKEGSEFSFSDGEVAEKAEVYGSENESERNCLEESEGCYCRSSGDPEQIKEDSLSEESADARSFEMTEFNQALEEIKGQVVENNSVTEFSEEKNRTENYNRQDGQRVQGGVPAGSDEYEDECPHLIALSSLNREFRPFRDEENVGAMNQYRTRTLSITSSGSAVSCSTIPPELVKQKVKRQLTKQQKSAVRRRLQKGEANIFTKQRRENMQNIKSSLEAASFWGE
Chain of Serine/threonine-protein kinase 38 (Homo sapiens) (Q15208 2-465 limits assumed): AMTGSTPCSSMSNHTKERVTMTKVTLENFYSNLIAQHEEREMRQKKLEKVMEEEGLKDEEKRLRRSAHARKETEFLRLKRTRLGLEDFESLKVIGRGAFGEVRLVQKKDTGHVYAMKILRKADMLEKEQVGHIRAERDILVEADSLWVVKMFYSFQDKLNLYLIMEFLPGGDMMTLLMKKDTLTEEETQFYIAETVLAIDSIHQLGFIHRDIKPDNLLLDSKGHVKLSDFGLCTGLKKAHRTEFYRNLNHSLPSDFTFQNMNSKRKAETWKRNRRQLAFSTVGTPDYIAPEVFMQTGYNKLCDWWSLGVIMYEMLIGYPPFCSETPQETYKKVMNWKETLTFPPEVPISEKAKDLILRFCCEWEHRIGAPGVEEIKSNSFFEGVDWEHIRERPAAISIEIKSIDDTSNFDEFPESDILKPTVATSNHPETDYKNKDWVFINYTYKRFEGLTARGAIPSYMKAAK

Take `N#CCCc1ccc2c(c1)-c1[nH]c3ccc([N+](=O)[O-])cc3c1CC(=O)N2` [ALSTERPAULLONE 2]: the ΔTm in [1] was determined as 5.9 °C; in assay [2], 0.9 °C; in assay [3], 4 °C; in assay [4], 0.1 °C; in assay [5], 1.9 °C; in assay [6], 8.2 °C. For the same molecule, the ΔTm was found to be 0.4 °C in [7]; 1.8 °C in assay [8]; 1.2 °C in assay [9]; 2.3 °C in assay [10]; 0.6 °C in assay [11]; 5.4 °C in [12]. Further, the ΔTm in assay [13] is 1.4 °C; in assay [14] it was 2.2 °C; in assay [15] it was 0.5 °C; in [16] it was 3.3 °C; in [17], 0.6 °C; in assay [18], 2.8 °C. In addition, the shift in melting temperature (ΔTm) was found to be 2.2 °C in [19] and 6.6 °C in assay [20].

Consider `O=S(=O)(c1cccc2c(Cl)cccc12)N1CCCNCC1`, for which the thermal shift (ΔTm) in [1] is 0.9 °C; in [2], -0.3 °C; in assay [3], 0.4 °C; in assay [4], 0.3 °C; in assay [5], 2.7 °C; in [6], -0.1 °C. Also, the thermal shift (ΔTm) is 0 °C in [7]; -0.1 °C in assay [8]; 0.3 °C in assay [9]; -0.1 °C in [10]; 0.1 °C in assay [11]; 0.1 °C in [12]. Also, the thermal shift (ΔTm) in [13] is 1.7 °C; in [14] it was 0.4 °C; in [15], -0.3 °C; in assay [16], 0.3 °C; in assay [17] it was 0 °C; in assay [18] it was -0.1 °C. Moreover, the ΔTm in [19] amounted to 0.9 °C; in [20], 0.8 °C.

As for `CC(C)(C)n1nc(-c2ccc(Cl)cc2)c2c(N)ncnc21`, the ΔTm in assay [1] is 2.1 °C; in [2], 3.3 °C; in assay [3], 4.7 °C; in assay [4], 0.4 °C; in [5], 0.1 °C; in assay [6] it was 0.4 °C. Besides, the shift in melting temperature (ΔTm) in assay [7] was 0 °C; in [8] it was 3.6 °C; in [9], 3.1 °C; in assay [10] it was -0.1 °C; in assay [11] it was -0.2 °C; in assay [12], 1.4 °C. Further, the thermal shift (ΔTm) in assay [13] is 0.2 °C; in assay [14], 0 °C; in assay [15], 4.6 °C; in assay [16], 0.7 °C; in assay [17], -0.2 °C; in assay [18], -0.3 °C. For the same molecule, the ΔTm is 0.3 °C in assay [19] and 0.7 °C in assay [20].

In the case of `COc1nccc(-c2c(-c3ccc(F)cc3)ncn2[C@H]2CC[C@H](O)CC2)n1`, the shift in melting temperature (ΔTm) in [1] is 6.1 °C; in assay [2], 0.2 °C; in [3], 1.9 °C; in assay [4] it was 0.1 °C; in [5], -0.5 °C; in assay [6], 1.2 °C. Moreover, the thermal shift (ΔTm) in [7] was 0.2 °C; in assay [8] it was 1.9 °C; in assay [9] it was 0 °C; in assay [10] it was -0.3 °C; in assay [11], -0.1 °C; in assay [12] it was -0.5 °C. The thermal shift (ΔTm) was 0.5 °C in assay [13]; 0 °C in assay [14]; 6.6 °C in assay [15]; 0.4 °C in assay [16]; -0.1 °C in assay [17]; 2.8 °C in assay [18]. Besides, the thermal shift (ΔTm) in assay [19] is 1 °C; in assay [20], -0.6 °C.

Consider `CCN1/C(=C/C(C)=O)Sc2ccc(OC)cc21`, for which the thermal shift (ΔTm) in assay [1] came out at 0.1 °C; in assay [2] it was 0.5 °C; in assay [3] it was 0.4 °C; in [4] it was 0.1 °C; in assay [5] it was 6.3 °C; in assay [6] it was 0.1 °C. In addition, the shift in melting temperature (ΔTm) in assay [7] was 0.8 °C; in [8], 0.7 °C; in assay [9] it was -0.2 °C; in [10], -0.9 °C; in [11] it was 0.1 °C; in assay [12], 0.1 °C. Also, the shift in melting temperature (ΔTm) in assay [13] is 3.1 °C; in [14], -0.4 °C; in assay [15], -0.1 °C; in assay [16], 0.5 °C; in assay [17] it was 0 °C; in [18], 0.7 °C. In addition, the values for the ΔTm in assay [19] and in assay [20] were 0.8 °C and 0.1 °C, respectively.

Take `Cc1nc2sccn2c(=O)c1CCN1CCC(=C(c2ccccc2)c2ccc(F)cc2)CC1`: the ΔTm in assay [1] stood at 3.6 °C; in assay [2], 1.8 °C; in [3], 3.1 °C; in assay [4], 1.1 °C; in [5], 6.6 °C; in [6], 0.4 °C. Besides, the shift in melting temperature (ΔTm) was -0.2 °C in assay [7]; 1 °C in assay [8]; 4.5 °C in assay [9]; 0.8 °C in [10]; 0 °C in assay [11]; 2.9 °C in [12]. Moreover, the thermal shift (ΔTm) in assay [13] is 3.3 °C; in [14] it was 0 °C; in assay [15] it was -0.7 °C; in [16], 0.6 °C; in [17], 0.5 °C; in assay [18], 0.4 °C. Also, the shift in melting temperature (ΔTm) in assay [19] was 0.1 °C; in [20], 1.2 °C.

Turning to `CCOC(=O)c1c(C)[nH]c(/C=C2\C(=O)Nc3ccccc32)c1C`, the ΔTm in assay [1] is 3 °C; in [2], 0.4 °C; in assay [3] it was 1.6 °C; in assay [4] it was -0.1 °C; in [5], -0.1 °C; in [6], 0.7 °C. In addition, the ΔTm in assay [7] is -0.4 °C; in [8], 1.6 °C; in assay [9], -8.9 °C; in [10], -0.5 °C; in assay [11], -2.2 °C; in assay [12] it was 0.4 °C. For the same molecule, the thermal shift (ΔTm) was 0.1 °C in [13]; -0.4 °C in assay [14]; -0.4 °C in [15]; -0.1 °C in [16]; 0 °C in [17]; -0.7 °C in [18]. In addition, the shift in melting temperature (ΔTm) is 0.5 °C in [19] and -3.4 °C in [20].

As a reminder, the ΔTm is the change in melting temperature against a reference sample.
